Measurements as given in patent publication US20120178147A1, “MICROBIAL CULTURES AND METHODS FOR ANAEROBIC BIOREMEDIATION” (priority 2009, published 2012).

What was measured:
[1] = at 25° C.; cited from earlier work
general bacteria [2] = experiment: qRT-PCR of general bacteria 16S rRNA genes in DehaloR̂2 cultures; format: cell-based; details: for General bacteria 16S rRNA gene copies, day 22 / General bacteria 16S rRNA gene copies, initial: DehaloR̂2 with 1.5 μM TCC or 35 μM TCS
Method: (§1) Quantitative real-time PCR (qRT-PCR) was performed for enumeration of general 16S rRNA genes and Dehalococcoides 16S rRNA genes in culture DehaloR̂2 and Bio-Dechlor INOCULUM. The primers used for general 16S rRNA genes were Bac1055F (5′-ATG GYT GTC GTC ACCT-3′) and Bac1392R (5′-ACG GGC GGT GTG TAC-3′) (Ritalahti et al., 2006), and the probe was Bac16sTaq (FAM-CAA CGA GCG CAA CCC/3-BHQ-1/). The final volume of PCR reactions was 10 μL, and the final concentration of each chemical in a single reaction tube was: 1× RealMasterMix (Fisher Scientific, Pittsburgh, Pa.), 300 nM Probe, 300 nM each Primer, and 130 nM DNA samples. The PCR conditions were as follows: 2 min at 95° C. followed by 40 cycles of 10 s at 95° C., 20 s at 56° C. and 20 s at 68° C. The primers used for Dehalococcoides 16S rRNA genes were Dhc1200F (5′-CTGGAGCTAATCCCCAAAGCT-3′) and Dhc1271R (5′-CAA CTT CAT GCA GGC GGG-3′), and the probe was Dhc1240Pr (FAM-TCCTCAGTTCGGATTGCAGGC TGAA/3-BHQ-1) (He et al., 2003b). The final volume of PCR reactions was 10 μL, and the final concentration of each chemical in a single reaction tube was: 1× RealMasterMix (Fisher Scientific, Pittsburgh, Pa.), 200 nM Probe, 700 nM each Primer, and 130 nM DNA samples. The PCR conditions were as follows: 2 min at 95° C. followed by 40 cycles of 15 s at 95° C., 20 s at 58° C. and 20 s at 68° C.
(§2) Quantitative Real time PCR (qRT-PCR) was carried out in a spectrofluorimetric thermal cycler (Master cycler, epgradient S, Eppendorf). Calibration curves were performed in triplicate and a linear range of 6 orders of magnitude was obtained. Plasmids containing Dehalococcoides strain BAV1 16S rRNA genes were used as standards to construct general 16S rRNA genes and Dehalococcoides 16S rRNA genes calibration curves. The slopes of the calibration curves for general 16S rRNA genes and Dehalococcoides 16S rRNA genes were −3.46 and −3.94, and the Y intercepts were 38 and 44.2, respectively.
(§3) DNA Extraction and Quantitative Real-Time PCR. The BDI cultures and DehaloR^2 cultures were shaken vigorously first and then 10 ml of the mixed liquid was removed with a sterile syringe and dispensed into 10 1.5 ml micro centrifuge tubes. These micro centrifuge tubes were then centrifuged at 13,000 rpm for 15 min in order to make a pellet, and the pellet was used for DNA extraction. Qiagen DNeasy Blood & Tissue Kit with modifications to enhance lysis was used for DNA isolation from cultures. DNA samples were stored at −20° C.
Quantitative real-time PCR (qRT-PCR) was performed for enumeration of general 16S rRNA genes and Dehalococcoides 16S rRNA genes in BDI culture without TCC&TCS, BDI culture with 1.5 μM TCC, BDI culture with 35 μM TCS, D DehaloR̂2 culture without TCC&TCS, DehaloR^2 culture with 1.5 μM TCC and DehaloR̂2^2 culture with 35 μM TCS.
The primers used for general 16S rRNA genes were Bac1055F (5′-ATGGYTGTCGTCAGCT-3′) and Bac1392R (5′-ACGGGCGGTGTGTAC-3′) (Ritalahti et al., 2006), and the probe was Bac16sTaq (FAM-CAACGAGCGCAACCC/3-BHQ-1/). The final volume of PCR reactions was 10 μL, and the final concentration of each chemical in a single reaction tube was: 1× RealMasterMix (Fisher Scientific, Pittsburgh, Pa.), 300 nM Probe, 300 nM each Primer, and 130 nM DNA samples. The PCR conditions were as follows: 2 min at 95° C. followed by 40 cycles of 10 s at 95° C., 20 s at 56° C. and 20 s at 68° C.
The qRT-PCR was carried out in a spectrofluorimetric thermal cycler (Master cycler, epgradient S, Eppendorf). […]

general bacteria [3] = experiment: qRT-PCR of general bacteria 16S rRNA genes in BDI cultures; format: cell-based; details: BDI with 1.5 μM TCC or 35 μM TCS
Method: as §1, §2, §3
Quantitative real-time PCR (qRT-PCR) was performed for enumeration of general 16S rRNA genes and Dehalococcoides 16S rRNA genes in BDI culture without TCC&TCS, BDI culture with 1.5 μM TCC, BDI culture with 35 μM TCS, D DehaloR̂2 culture without TCC&TCS, DehaloR^2 culture with 1.5 μM TCC and DehaloR̂2^2 culture with 35 μM TCS. […]

[4] = at 25° C., pH 7; cited from earlier work

| Structure (SMILES) | Vapor pressure [1] | General bacteria 16S rRNA gene copies, day 22 (general bacteria [2]) | General bacteria 16S rRNA gene copies, initial (general bacteria [2]) | General bacteria 16S rRNA gene copies, day 27 (general bacteria [3]) | General bacteria 16S rRNA gene copies, initial (general bacteria [3]) | Partition Coefficient [4] [Log Pow] | General bacteria 16S rRNA gene copies, day 22 relative to initial (general bacteria [2]; DehaloR̂2 with 35 μM TCS) [times] |
| --- | --- | --- | --- | --- | --- | --- | --- |
| O=C(Nc1ccc(Cl)cc1)Nc1ccc(Cl)c(Cl)c1 [TCC, 3-(4-chlorophenyl)-1-(3,4-dichlorphenyl) urea] | 3.61 × 10^−9 mm Hg | 1.6×10^8 gene copies/ml | 1.3×10^7 gene copies/ml | 1.4×10^8 gene copies/ml | 7.2×10^7 gene copies/ml | 4.9 |  |
| Oc1cc(Cl)ccc1Oc1ccc(Cl)cc1Cl [TCS, 5-chloro-2-[2,4-dichloro-phenoxy]-phenol] | 4.65 × 10^−6 mm Hg | 7.5×10^7 gene copies/ml | 2.2×10^7 gene copies/ml | 3.3×10^8 gene copies/ml | 1.0×10^8 gene copies/ml | 4.8 | 3.5 |
